ChEMBL document CHEMBL1146949, “Isoquinoline derivatives as potential acetylcholinesterase inhibitors” (Bioorg Med Chem Lett, 2006)

Tests used:
[1] = biological target: T1, Acetylcholinesterase (Homo sapiens, UniProt P22303); assay: Inhibition of AChE at 0.3 mM
[2] = biological target: T1, Acetylcholinesterase; assay: Inhibition of AChE at 0.03 mM
[3] = biological target: T1, Acetylcholinesterase; assay: Inhibition of AChE activity

T1 sequence (P22303 whole entry): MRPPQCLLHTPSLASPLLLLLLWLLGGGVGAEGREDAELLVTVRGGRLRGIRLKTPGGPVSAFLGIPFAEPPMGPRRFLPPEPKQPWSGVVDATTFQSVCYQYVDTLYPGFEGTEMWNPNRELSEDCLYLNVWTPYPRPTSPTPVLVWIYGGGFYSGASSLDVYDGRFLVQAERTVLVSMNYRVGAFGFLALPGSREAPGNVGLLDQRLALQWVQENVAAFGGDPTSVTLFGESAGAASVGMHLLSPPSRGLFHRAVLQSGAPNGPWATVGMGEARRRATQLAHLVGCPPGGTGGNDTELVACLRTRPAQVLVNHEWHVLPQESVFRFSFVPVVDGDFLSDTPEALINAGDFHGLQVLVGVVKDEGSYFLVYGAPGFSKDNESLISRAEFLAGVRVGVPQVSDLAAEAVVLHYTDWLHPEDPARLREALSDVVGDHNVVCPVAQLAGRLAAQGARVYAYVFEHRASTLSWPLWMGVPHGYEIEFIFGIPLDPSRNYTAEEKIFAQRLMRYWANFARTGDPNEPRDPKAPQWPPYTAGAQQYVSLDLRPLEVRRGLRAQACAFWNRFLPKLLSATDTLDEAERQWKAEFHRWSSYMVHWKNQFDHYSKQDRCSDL

Row | SMILES | inhibition [1] | inhibition [2] | IC50 [3] | inhibition ([3]; concentration not given here)
1 | COC(=O)N1CCc2c(OC)c(OC)c(OC)c3c2C1Cc1cc(OC)c(OC)cc1-3 (stereo unspecified) | 15.9% | 7.3% | – | –
2 | COc1cc2ccnc(C(O)c3ccccc3OC)c2cc1OC (stereo unspecified) | – | – | 6.94 µM | 0%
3 | COc1ccc(C(O)c2nccc3cc(OC)c(OC)cc23)cc1OC (stereo unspecified) | – | – | 10.7 µM | –
4 | COc1ccc(Cc2nccc3cc(OC)c(OC)cc23)cc1OC [PAPAVERINE] | – | – | 24.3 µM | –
